Experimental data taken from patent US5411933A, “Bromopropargyl quarternary ammonium compounds having antimicrobial activity” (Rohm & Haas Company, priority 1994, dated 1995).

Legend:
Aspergillus niger = test: minimum inhibitory concentration, broth two-fold serial dilution test, Aspergillus niger; type: cell-based, Aspergillus niger ATCC 6275; conditions: for MIC: Aspergillus niger, ATCC6275, Aspergillus niger ATCC 6275, TSB media, lowest concentration with complete inhibition of growth, read-out: MIC (TSB media) Anig; for MIC (TSB media) Anig: Aspergillus niger ATCC 6275, lowest concentration with complete inhibition of growth
Experimental: (§1) Bactericidal and fungicidal evaluations of the compounds of Example 5 were carried out.
(§2) A minimum inhibitory concentration (MIC) value is obtained using a broth, two-fold serial dilution test performed as follows: A stock solution or dispersion of the test compound, typically at a concentration of 1%, is made in a 5:3:2 solvent solution of acetone, methanol, and water. A volume of the stock solution is dispensed into culture media to give an initial starting test concentration of 500 ppm compound.
(§3) When the test is ready to be done, each vessel in the dilution series, except the first vessel, contains an equal volume of compound free broth. The first vessel contains twice the volume of broth with the starting concentration of test compound. One half of the broth from the first vessel is transferred to the second vessel. After being mixed, one half the resulting volume is removed from the second vessel and transferred to the third vessel. The entire cycle is repeated sufficiently to give a series of concentrations amounting to 500, 250, 125, 63, 31, 16, 8 and 4, 2, 1, 0.5, 0.25 ppm respectively.
(§4) Each vessel is then inoculated with a cell suspension of the appropriate test organism. Bacteria are grown in broth, fungi or agar slants for a time and at a temperature appropriate to the species being tested, and algae are a mixture of green algae and blue-green bacteria grown in a nutrient media. At the end of the growth period, in the case of bacteria, the broth is vortexed to disperse the cells.
(§5) In the case of fungi, the spores are harvested by pipetting water onto the slant and dislodging the spores with a sterile loop. The cell/spore suspension is standardized by controlling incubation time, temperature, and the volume of the diluent. The suspension is then used to inoculate the vessels containing the broth compound.
(§6) The vessels are then incubated at the appropriate temperature. After the incubation, the vessels are examined for growth/no growth. The minimum inhibitory concentration (MIC) is defined as the lowest concentration of compounds that results in complete inhibition of growth of the test organism.
3. Aspergillus niger 6275 Anig

Escherichia coli = test: minimum inhibitory concentration, broth two-fold serial dilution test, Escherichia coli; type: cell-based, Escherichia coli ATCC 11229; conditions: for MIC (TSB media) Ecol: Escherichia coli ATCC 11229, lowest concentration with complete inhibition of growth; for MIC: Escherichia coli, ATCC11229, Escherichia coli ATCC 11229, TSB media, lowest concentration with complete inhibition of growth, read-out: MIC (TSB media) Ecol
Experimental: as §1, §2, §3, §4, §6

Rhodotorula rubra = test: minimum inhibitory concentration, broth two-fold serial dilution test, Rhodotorula rubra; type: cell-based; conditions: lowest concentration with complete inhibition of growth; for MIC: Rhodotorula, TSB media, read-out: MIC (TSB media) Rrub
Experimental: as §1, §2, §3, §4, §5, §6
4. Rhodotorula rubra Rrub

Pseudomonas aeruginosa = test: minimum inhibitory concentration, broth two-fold serial dilution test, Pseudomonas aeruginosa; type: cell-based, Pseudomonas aeruginosa ATCC 15442; conditions: for MIC (TSB media) Psae: Pseudomonas aeruginosa ATCC 15442, lowest concentration with complete inhibition of growth; for MIC: Pseudomonas aeruginosa, ATCC15442, Pseudomonas aeruginosa ATCC 15442, TSB media, lowest concentration with complete inhibition of growth, read-out: MIC (TSB media) Psae
Experimental: as §1, §2, §3, §4, §6
1. Pseudomonas aeruginosa

CCCCCCCCCCCCCC[N+]1(CC#CBr)CCOCC1 [Compound 2, 1-tetradecyl-1-(3-bromopropargyl)-morpholinium benzenesulfonate]
MIC (Aspergillus niger): < 4 µg/mL | MIC (TSB media) Ecol (Escherichia coli): 8 ppm | MIC (Rhodotorula rubra): < 4 µg/mL | MIC (TSB media) Psae (Pseudomonas aeruginosa): 63 ppm

dimethyldodecyl ammonium 4-methylbenzenesulfonate [Compound 21]
MIC (TSB media) Anig (Aspergillus niger): 6.3 ppm | MIC (TSB media) Ecol (Escherichia coli): 32 ppm | MIC (TSB media) Rrub (Rhodotorula rubra): 3.2 ppm | MIC (TSB media) Psae (Pseudomonas aeruginosa): 250 ppm

CCCCCCCCCCCCCC[N+]1(CC#CBr)CCCCC1C (centres unmarked) [Compound 14, 1-tetradecyl-1-(3-bromopropargyl)-(2-methyl)piperidinium 4-methylbenzenesulfonate]
MIC (Aspergillus niger): < 4 µg/mL | MIC (Escherichia coli): < 4 µg/mL | MIC (TSB media) Rrub (Rhodotorula rubra): < 4 ppm | MIC (TSB media) Psae (Pseudomonas aeruginosa): 125 ppm

CCCCCCCCCCCCCC[N+]1(CC#CBr)CCCCC1 [Compound 6, 1-tetradecyl-1-(3-bromopropargyl)-piperidinium methanesulfonate]
MIC (Aspergillus niger): < 4 µg/mL | MIC (TSB media) Ecol (Escherichia coli): > 500 ppm | MIC (Rhodotorula rubra): < 4 µg/mL | MIC (TSB media) Psae (Pseudomonas aeruginosa): > 500 ppm

CCCCCCCCCCCCCC[N+]1(CC#CBr)CCOCC1 [Compound 7, 1-tetradecyl-1-(3-bromopropargyl)-morpholinium n-butanesulfonate]
MIC (TSB media) Anig (Aspergillus niger): < 4 ppm | MIC (TSB media) Ecol (Escherichia coli): 16 ppm | MIC (TSB media) Rrub (Rhodotorula rubra): < 4 ppm | MIC (TSB media) Psae (Pseudomonas aeruginosa): 500 ppm

CCCCCCCC[N+](C)(CC#CBr)CCCCCCCC [Compound 25, methyldioctyl(3-bromopropargyl) ammonium 4-methylbenzenesulfonate]
MIC (Aspergillus niger): 12.5 µg/mL | MIC (Escherichia coli): 32 µg/mL | MIC (Rhodotorula rubra): 6.3 µg/mL | MIC (Pseudomonas aeruginosa): 500 µg/mL

CCCCCCCC[N+](CC#CI)(CCCCCCCC)CCCCCCCC [Compound 34, reference compound]
MIC (Aspergillus niger): 1.6 µg/mL | MIC (Escherichia coli): > 500 µg/mL | MIC (Rhodotorula rubra): 1.6 µg/mL | MIC (Pseudomonas aeruginosa): 1.6 µg/mL

CCCCCCCCCCCC[N+](CC#CBr)(CCCCCCCCCCCC)CCCCCCCCCCCC [Compound 24, tridodecyl(3-bromopropargyl) ammonium 4-methylbenzenesulfonate]
MIC (Aspergillus niger): > 50 µg/mL | MIC (Escherichia coli): 500 µg/mL | MIC (Rhodotorula rubra): > 50 µg/mL | MIC (Pseudomonas aeruginosa): 500 µg/mL

CCCCCCCC[N+](CC#CBr)(CCCCCCCC)CCCCCCCC [Compound 18, trioctyl-(3-bromopropargyl) ammonium benzenesulfonate]
MIC (Aspergillus niger): 1.6 µg/mL | MIC (Escherichia coli): < 4 µg/mL | MIC (Rhodotorula rubra): 1.6 µg/mL | MIC (Pseudomonas aeruginosa): 16 µg/mL

CCCCCCCCCCCCCCCC[N+]1(CC#CBr)CCOCC1 [Compound 13, 1-hexadecyl-1-(3-bromopropargyl)-morpholinium methanesulfonate]
MIC (TSB media) Anig (Aspergillus niger): 16 ppm | MIC (TSB media) Ecol (Escherichia coli): > 500 ppm | MIC (TSB media) Rrub (Rhodotorula rubra): 32 ppm | MIC (TSB media) Psae (Pseudomonas aeruginosa): 500 ppm

CCCCCCCCCCCCCC[N+]1(CC#CBr)CCCCC1C (centres unmarked) [Compound 15, 1-tetradecyl-1-(3-bromopropargyl)-(2-methyl)piperidinium methanesulfonate]
MIC (TSB media) Anig (Aspergillus niger): 3.2 ppm | MIC (TSB media) Ecol (Escherichia coli): 5 ppm | MIC (TSB media) Rrub (Rhodotorula rubra): < 1 ppm | MIC (TSB media) Psae (Pseudomonas aeruginosa): 300 ppm

CCCCCCCCCCCCCCCC[N+]1(CC#CBr)CCOCC1 [Compound 11, 1-hexadecyl-1-(3-bromopropargyl)-morpholinium bromide]
MIC (TSB media) Anig (Aspergillus niger): < 4 ppm | MIC (TSB media) Ecol (Escherichia coli): 16 ppm | MIC (TSB media) Rrub (Rhodotorula rubra): < 4 ppm | MIC (Pseudomonas aeruginosa): 500 µg/mL

CCCCCC[N+](CC#CBr)(CCCCCC)CCCCCC [Compound 23, trihexyl(3-bromopropargyl) ammonium 4-methylbenzenesulfonate]
MIC (TSB media) Anig (Aspergillus niger): 50 ppm | MIC (TSB media) Ecol (Escherichia coli): 250 ppm | MIC (TSB media) Rrub (Rhodotorula rubra): < 50 ppm | MIC (TSB media) Psae (Pseudomonas aeruginosa): 500 ppm

CCCCCCCCCCCCCC[N+]1(CC#CI)CCOCC1 [Compound 32, reference compound]
MIC (Aspergillus niger): 4 µg/mL | MIC (Escherichia coli): 8 µg/mL | MIC (Rhodotorula rubra): 4 µg/mL | MIC (Pseudomonas aeruginosa): 125 µg/mL

CCCCCCCCCCCCC[N+]1(CC#CBr)CCOCC1 [Compound 10, 1-tridecyl-1-(3-bromopropargyl)-morpholinium bromide]
MIC (Aspergillus niger): 16 µg/mL | MIC (Escherichia coli): 32 µg/mL | MIC (Rhodotorula rubra): < 4 µg/mL | MIC (Pseudomonas aeruginosa): 250 µg/mL

CCCCCCCCCCCCCC[N+]1(CC#CBr)CCOCC1 [Compound 9, 1-tetradecyl-1-(3-bromopropargyl)-morpholinium bromide]
MIC (TSB media) Anig (Aspergillus niger): < 4 ppm | MIC (TSB media) Ecol (Escherichia coli): 8 ppm | MIC (TSB media) Rrub (Rhodotorula rubra): < 4 ppm | MIC (TSB media) Psae (Pseudomonas aeruginosa): 125 ppm

CCCCCCCCCCCCCC[N+]1(CC#CBr)CCCCC1C (centres unmarked) [Compound 16, 1-tetradecyl-1-(3-bromopropargyl)-(2-methyl)piperidinium benzenesulfonate]
MIC (TSB media) Anig (Aspergillus niger): < 4 ppm | MIC (TSB media) Ecol (Escherichia coli): 8 ppm | MIC (TSB media) Rrub (Rhodotorula rubra): < 4 ppm | MIC (TSB media) Psae (Pseudomonas aeruginosa): 500 ppm

CCCCCC[N+](CC#CBr)(CCCCCC)CCCCCC [Compound 22, trihexyl(3-bromopropargyl) ammonium benzenesulfonate]
MIC (Aspergillus niger): 25 µg/mL | MIC (Escherichia coli): 125 µg/mL | MIC (TSB media) Rrub (Rhodotorula rubra): 12.5 ppm | MIC (Pseudomonas aeruginosa): 500 µg/mL

CCCCCC[N+](CC#CI)(CCCCCC)CCCCCC [Compound 31, reference compound]
MIC (Aspergillus niger): 12.5 µg/mL | MIC (Escherichia coli): 63 µg/mL | MIC (Rhodotorula rubra): 6.3 µg/mL | MIC (Pseudomonas aeruginosa): > 500 µg/mL

CCCCCCCC[N+](C)(C)CC#CBr [Compound 19, dimethyloctyl(3-bromopropargyl) ammonium benzenesulfonate]
MIC (Aspergillus niger): < 4 µg/mL | MIC (Escherichia coli): 16 µg/mL | MIC (Rhodotorula rubra): < 4 µg/mL | MIC (Pseudomonas aeruginosa): 250 µg/mL

CCCCCCCCCCCCCC[N+]1(CC#CBr)CCCCC1 [Compound 17, 1-tetradecyl-1-(3-bromopropargyl)-piperidinium benzenesulfonate]
MIC (TSB media) Anig (Aspergillus niger): < 4 ppm | MIC (TSB media) Ecol (Escherichia coli): < 4 ppm | MIC (TSB media) Rrub (Rhodotorula rubra): < 4 ppm | MIC (TSB media) Psae (Pseudomonas aeruginosa): 32 ppm

CCCCCCCC[N+](CC#CBr)(CCCCCCCC)CCCCCCCC [Compound 20, trioctyl(3-bromopropargyl) ammonium 4-methylbenzenesulfonate]
MIC (TSB media) Anig (Aspergillus niger): 3.2 ppm | MIC (TSB media) Ecol (Escherichia coli): < 4 ppm | MIC (TSB media) Rrub (Rhodotorula rubra): 0.8 ppm | MIC (TSB media) Psae (Pseudomonas aeruginosa): 8 ppm

CCCCCCCCCCCCCC[N+]1(CC#CBr)CCOCC1 [Compound 3, 1-tetradecyl-1-(3-bromopropargyl)-morpholinium 4-methylbenzenesulfonate]
MIC (TSB media) Anig (Aspergillus niger): < 4 ppm | MIC (TSB media) Ecol (Escherichia coli): 8 ppm | MIC (TSB media) Rrub (Rhodotorula rubra): < 4 ppm | MIC (TSB media) Psae (Pseudomonas aeruginosa): 250 ppm

CCCCCCCCCCCCCC[N+]1(CC#CI)CCCCC1 [Compound 33, reference compound]
MIC (Aspergillus niger): 4 µg/mL | MIC (Escherichia coli): 4 µg/mL | MIC (Rhodotorula rubra): 2 µg/mL | MIC (Pseudomonas aeruginosa): 125 µg/mL

CCCCCCCCCCCCCC[N+]1(CC#CBr)CCOCC1 [Compound 4, 1-tetradecyl-1-(3-bromopropargyl)-morpholinium methanesulfonate]
MIC (TSB media) Anig (Aspergillus niger): < 4 ppm | MIC (TSB media) Ecol (Escherichia coli): 32 ppm | MIC (TSB media) Rrub (Rhodotorula rubra): < 4 ppm | MIC (TSB media) Psae (Pseudomonas aeruginosa): 500 ppm

CCCCCCCCCCCCCC[N+]1(CC#CBr)CCCC1 [Compound 8, 1-tetradecyl-1-(3-bromopropargyl)-pyrrolidinium n-butanesulfonate]
MIC (TSB media) Anig (Aspergillus niger): < 4 ppm | MIC (TSB media) Ecol (Escherichia coli): < 4 ppm | MIC (TSB media) Rrub (Rhodotorula rubra): < 4 ppm | MIC (TSB media) Psae (Pseudomonas aeruginosa): 250 ppm

CCCCCCCCCCCC[N+]1(CC#CBr)CCOCC1 [Compound 12, 1-dodecyl-1-(3-bromopropargyl)-morpholinium 4-methylbenzenesulfonate]
MIC (Aspergillus niger): 16 µg/mL | MIC (Escherichia coli): 63 µg/mL | MIC (Rhodotorula rubra): < 4 µg/mL | MIC (Pseudomonas aeruginosa): 500 µg/mL

CCCCCCCCCCCCCC[N+]1(CC#CBr)CCCC1 [Compound 5, 1-tetradecyl-1-(3-bromopropargyl)-pyrrolidinium benzenesulfonate]
MIC (TSB media) Anig (Aspergillus niger): < 4 ppm | MIC (TSB media) Ecol (Escherichia coli): 8 ppm | MIC (TSB media) Rrub (Rhodotorula rubra): < 4 ppm | MIC (TSB media) Psae (Pseudomonas aeruginosa): 500 ppm

CCCCCCCCCCCCCC[N+]1(CC#CBr)CCCC1 [Compound 1, 1-tetradecyl-1-(3-bromopropargyl)-pyrrolidinium 4-methylbenzenesulfonate]
MIC (Aspergillus niger): < 4 µg/mL | MIC (Escherichia coli): 8 µg/mL | MIC (Rhodotorula rubra): < 4 µg/mL | MIC (Pseudomonas aeruginosa): > 500 µg/mL
